According to PubChem BioAssay (NCI):
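1) Cells in 96-well plates. 2) Compound, 48 h, 5 concentrations. 3) Linear interpolation between surrounding doses. 4) Unreached endpoint = highest concentration. TGI: total growth inhibition.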

Key:
Assay in all cases: NCI anticancer screen, dose series, 48 h
786-0 renal = system: 786-0 renal
A498 renal = system: A498 renal
A549 NSCLC = system: A549 NSCLC
ACHN renal = system: ACHN renal
BT-549 breast = system: BT-549 breast
CAKI-1 renal = system: CAKI-1 renal
CCRF-CEM leukemia = system: CCRF-CEM leukemia
COLO 205 colon = system: COLO 205 colon
DU-145 prostate = system: DU-145 prostate
EKVX NSCLC = system: EKVX NSCLC
HCT-116 colon = system: HCT-116 colon
HCT-15 colon = system: HCT-15 colon
HL-60(TB) leukemia = system: HL-60(TB) leukemia
HOP-62 NSCLC = system: HOP-62 NSCLC
HOP-92 NSCLC = system: HOP-92 NSCLC
HS 578T breast = system: HS 578T breast
K-562 leukemia = system: K-562 leukemia
KM12 colon = system: KM12 colon
LOX IMVI melanoma = system: LOX IMVI melanoma
M14 melanoma = system: M14 melanoma
MALME-3M melanoma = system: MALME-3M melanoma
MCF7 breast = system: MCF7 breast
MDA-MB-231 breast = system: MDA-MB-231 breast
MDA-MB-435 = system: MDA-MB-435
MDA-N = system: MDA-N
MOLT-4 leukemia = system: MOLT-4 leukemia
NCI-H226 lung = system: NCI-H226 lung
NCI-H23 lung = system: NCI-H23 lung
NCI-H460 lung = system: NCI-H460 lung
NCI-H522 lung = system: NCI-H522 lung
NCI/ADR-RES ovarian = system: NCI/ADR-RES ovarian
OVCAR-3 ovarian = system: OVCAR-3 ovarian
OVCAR-4 ovarian = system: OVCAR-4 ovarian
OVCAR-5 ovarian = system: OVCAR-5 ovarian
OVCAR-8 ovarian = system: OVCAR-8 ovarian
PC-3 prostate = system: PC-3 prostate
RXF 393 renal = system: RXF 393 renal
SF-268 CNS = system: SF-268 CNS
SF-295 CNS = system: SF-295 CNS
SF-539 CNS = system: SF-539 CNS
SK-MEL-2 melanoma = system: SK-MEL-2 melanoma
SK-MEL-28 melanoma = system: SK-MEL-28 melanoma
SK-MEL-5 melanoma = system: SK-MEL-5 melanoma
SK-OV-3 ovarian = system: SK-OV-3 ovarian
SN12C renal = system: SN12C renal
SNB-19 CNS = system: SNB-19 CNS
SNB-75 CNS = system: SNB-75 CNS
SR leukemia = system: SR leukemia
SW-620 colon = system: SW-620 colon
T-47D breast = system: T-47D breast
TK-10 renal = system: TK-10 renal
U251 CNS = system: U251 CNS
UACC-257 melanoma = system: UACC-257 melanoma
UACC-62 melanoma = system: UACC-62 melanoma
UO-31 renal = system: UO-31 renal
HCC-2998 colon = system: HCC-2998 colon
HT29 colon = system: HT29 colon
IGROV1 ovarian = system: IGROV1 ovarian
RPMI-8226 leukemia = system: RPMI-8226 leukemia

## COc1c(C)c(OC)c2c(c1O)[C@@H]1[C@@H]3Cc4c(OC)c(C)c(OC)c(O)c4[C@H](CNC(=O)c4cnc5ccccc5n4)N3[C@@H](C#N)[C@H](C2)N1C
786-0 renal
  TGI: > 0.1 µM
A498 renal
  TGI: 0.00894 µM
A549 NSCLC
  TGI: > 0.1 µM
ACHN renal
  TGI: > 0.0414 µM
BT-549 breast
  TGI: 0.02 µM
CAKI-1 renal
  TGI: > 0.0391 µM
CCRF-CEM leukemia
  TGI: 0.0054 µM
COLO 205 colon
  TGI: 0.0114 µM
DU-145 prostate
  TGI: > 0.0206 µM
EKVX NSCLC
  TGI: > 0.00703 µM
HCT-116 colon
  TGI: > 0.1 µM
HCT-15 colon
  TGI: > 0.0716 µM
HL-60(TB) leukemia
  TGI: 0.00554 µM
HOP-62 NSCLC
  TGI: > 0.1 µM
HOP-92 NSCLC
  TGI: 0.0129 µM
HS 578T breast
  TGI: 0.0192 µM
K-562 leukemia
  TGI: 0.018 µM
KM12 colon
  TGI: 0.00382 µM
LOX IMVI melanoma
  TGI: > 0.0273 µM
M14 melanoma
  TGI: 0.00568 µM
MALME-3M melanoma
  TGI: 0.00458 µM
MCF7 breast
  TGI: > 0.1 µM
MDA-MB-231 breast
  TGI: 0.032 µM
MDA-MB-435
  TGI: 0.00622 µM
MDA-N
  TGI: 0.00362 µM
MOLT-4 leukemia
  TGI: 0.00262 µM
NCI-H226 lung
  TGI: 0.00622 µM
NCI-H23 lung
  TGI: 0.0121 µM
NCI-H460 lung
  TGI: > 0.1 µM
NCI-H522 lung
  TGI: 0.00516 µM
NCI/ADR-RES ovarian
  TGI: > 0.1 µM
OVCAR-3 ovarian
  TGI: 0.0168 µM
OVCAR-4 ovarian
  TGI: 0.00898 µM
OVCAR-5 ovarian
  TGI: > 0.1 µM
OVCAR-8 ovarian
  TGI: 0.0212 µM
PC-3 prostate
  TGI: > 0.0556 µM
RXF 393 renal
  TGI: > 0.0368 µM
SF-268 CNS
  TGI: > 0.1 µM
SF-295 CNS
  TGI: > 0.0294 µM
SF-539 CNS
  TGI: 0.0104 µM
SK-MEL-2 melanoma
  TGI: 0.00733 µM
SK-MEL-28 melanoma
  TGI: 0.00733 µM
SK-MEL-5 melanoma
  TGI: 0.0187 µM
SK-OV-3 ovarian
  TGI: > 0.0445 µM
SN12C renal
  TGI: > 0.0718 µM
SNB-19 CNS
  TGI: > 0.0533 µM
SNB-75 CNS
  TGI: 0.00552 µM
SR leukemia
  TGI: 0.0014 µM
SW-620 colon
  TGI: > 0.0313 µM
T-47D breast
  TGI: 0.00676 µM
TK-10 renal
  TGI: 0.0248 µM
U251 CNS
  TGI: > 0.0361 µM
UACC-257 melanoma
  TGI: 0.00756 µM
UACC-62 melanoma
  TGI: 0.00346 µM
UO-31 renal
  TGI: > 0.0423 µM

## CSc1c(C#N)c2n(c3ccccc13)c1ccccc1[n+]2C
786-0 renal
  TGI: > 100 µM
A498 renal
  TGI: 60 µM
A549 NSCLC
  TGI: 81.8 µM
ACHN renal
  TGI: 50.9 µM
BT-549 breast
  TGI: 74.3 µM
CAKI-1 renal
  TGI: 84.3 µM
CCRF-CEM leukemia
  TGI: 47.6 µM
COLO 205 colon
  TGI: 38.6 µM
DU-145 prostate
  TGI: 92.6 µM
EKVX NSCLC
  TGI: 56.9 µM
HCC-2998 colon
  TGI: 64.8 µM
HCT-116 colon
  TGI: 40.8 µM
HCT-15 colon
  TGI: > 100 µM
HL-60(TB) leukemia
  TGI: 56.9 µM
HOP-62 NSCLC
  TGI: 52.7 µM
HOP-92 NSCLC
  TGI: > 100 µM
HS 578T breast
  TGI: > 100 µM
HT29 colon
  TGI: 46.2 µM
IGROV1 ovarian
  TGI: > 100 µM
KM12 colon
  TGI: > 100 µM
LOX IMVI melanoma
  TGI: > 100 µM
M14 melanoma
  TGI: > 100 µM
MALME-3M melanoma
  TGI: 34.6 µM
MCF7 breast
  TGI: > 100 µM
MDA-MB-231 breast
  TGI: 60.1 µM
MDA-MB-435
  TGI: 79.5 µM
MDA-N
  TGI: 63.5 µM
MOLT-4 leukemia
  TGI: 38.6 µM
NCI-H23 lung
  TGI: 70.7 µM
NCI-H460 lung
  TGI: > 100 µM
NCI-H522 lung
  TGI: 31.5 µM
NCI/ADR-RES ovarian
  TGI: 68.4 µM
OVCAR-3 ovarian
  TGI: > 100 µM
OVCAR-4 ovarian
  TGI: > 100 µM
OVCAR-5 ovarian
  TGI: > 100 µM
OVCAR-8 ovarian
  TGI: 59.3 µM
PC-3 prostate
  TGI: 78.5 µM
RPMI-8226 leukemia
  TGI: 85.6 µM
SF-268 CNS
  TGI: > 100 µM
SF-295 CNS
  TGI: > 100 µM
SF-539 CNS
  TGI: 78.8 µM
SK-MEL-2 melanoma
  TGI: 39.1 µM
SK-MEL-28 melanoma
  TGI: > 100 µM
SK-MEL-5 melanoma
  TGI: 26.7 µM
SN12C renal
  TGI: 53.1 µM
SNB-75 CNS
  TGI: > 100 µM
SR leukemia
  TGI: > 100 µM
SW-620 colon
  TGI: > 100 µM
T-47D breast
  TGI: > 100 µM
TK-10 renal
  TGI: 93.6 µM
U251 CNS
  TGI: 73.7 µM
UACC-257 melanoma
  TGI: 67.8 µM
UACC-62 melanoma
  TGI: 47.1 µM
UO-31 renal
  TGI: 64.9 µM
